According to patent publication US20230227466A1, “SUBSTITUTED THIENOPYRIMIDINES THAT INTERACT WITH THE RAS SUPERFAMILY FOR THE TREATMENT OF CANCERS, INFLAMMATORY DISEASES, RASOPATHIES, AND FIBROTIC DISEASE” (SHY Therapeutics, LLC, priority 2020, published 2023):
Like-named read-outs stand apart in the source and are kept apart here.

How the values were obtained:
[1] = system: Akt phosphorylation in Panc-1 cells; experiment: Western AKT cell-based phosphorylation assay; parameters: species or system human; settings: at 10 μM, values in brackets < > are activation %, not inhibition
Description: Human Tumor-Derived Pancreatic Cancer Cell Line Panc-1 was Purchased from
American Type Culture Collection and grown in complete DMEM-High Glucose supplemented with penicillin (100 U/mL), streptomycin (100 μg/mL), and 10% heat-inactivated FBS at 37° C. in a humidified incubator with 5% CO2.
Method: Cells were plated at 350000 cells/well density in a 12-well plate, allowed 3 hours to adhere to the plate, then starved in the appropriate medium in the presence of 0.5% FBS overnight. The small molecules to be tested were added to the cells in the final concentration of 10 μM in the presence of 0.3% DMSO for 6 hours incubation at 37° C. Next, cells were stimulated with 1.5 ng/ml EGF for 15 minutes then cells were lysed with lysis buffer containing 1% Triton X-100, EDTA, and Halt™ Protease & Phosphatase Inhibitor Cocktail (Thermo Scientific). Protein concentration was assessed by BCA protein assay (Thermo Scientific). Phosphorylation level of Akt was determined by western blot.
Western blot protocol: Equal amounts of protein (15-50 μg) were separated by SDS-PAGE and transferred to nitrocellulose membranes (Invitrogen by Thermo Fisher Scientific). The membrane was stained with Ponceau S Stain (Boston BioProducts) to verify uniform protein loading. Membranes were blocked with 10% milk and phosphorylation levels of Akt were assessed by incubating overnight at 4° C. with anti-phospho-Akt (Ser473) antibody (Cell Signaling) followed by HRP-conjugated secondary antibody (Jackson Immunoresearch, West Grove, Pa.). Bands were incubated in Amersham ECL Prime Western Blotting Detection Reagent (GE Healthcare) and visualized using the ChemiDoc MP imaging system (Bio-Rad).

KRas G12C mutant = target: T1, KRas G12C mutant (Homo sapiens, UniProt P01116, G12C); experiment: Ras GTP binding domain inhibition assay (labeled-GTP competition, cell-free)
T1 construct: made in house
How it was run: (§1)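 His-tagged protein immobilized on Ni-coated wells overnight at 4 °C. Compounds (20 μM single point or serial dilution for IC50) incubated 3 h at RT, ± Sos (residues 556-1049, 10-30 μg/mL) during the final hour. Cy3- or Cy5-GTP (100 nM) then added for 45 min; bound label read by fluorescence after washing.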

KRas G12D mutant = target: T2, KRas G12D mutant (Homo sapiens, UniProt P01116, G12D); experiment: as above
T2 construct: made in house
How it was run: as §1

KRas Q61H mutant = target: T3, KRas Q61H mutant (Homo sapiens, UniProt P01116, Q61H); experiment: as above
T3 construct: made in house
How it was run: as §1

[2] = with SOS, read-out: KRas G12C mutant + SOS: % inh.
[3] = without SOS, read-out: KRas G12C mutant: % inh.
[4] = with SOS, read-out: KRas G12D mutant + SOS: % inh.
[5] = without SOS, read-out: KRas G12D mutant: % inh.
[6] = with SOS, read-out: KRas Q61H mutant + SOS: % inh.
[7] = without SOS, read-out: KRas Q61H mutant: % inh.

Row | inhibition at 20 µM (KRas G12C mutant; [2]) | inhibition at 20 µM (KRas G12C mutant; [3]) | inhibition at 20 µM (KRas G12D mutant; [4]) | inhibition at 20 µM (KRas G12D mutant; [5]) | inhibition at 20 µM (KRas Q61H mutant; [6]) | inhibition at 20 µM (KRas Q61H mutant; [7]) | IC50 (KRas Q61H mutant; with SOS) | SMILES | % inh of AKT phosphorylation in PANC-1 [1]
1 | 1 to 25% | 1 to 25% | 0% | 0% | 1 to 25% | 1 to 25% | > 10 µM | CO[C@H]1CC[C@@H](Nc2nc(-c3nccn3C)nc3sc(-c4cc[nH]n4)c(-c4ccccc4)c23)C1 (racemic) [Example 1, Rac-N-((1R,3S)-3-methoxycyclopentyl)-2-(1-methyl-1H-imidazol-2-yl)-5-phenyl-6-(1H-pyrazol-3-yl)thieno[2,3-d]pyrimidin-4-amine] | 0 (0% inhibition)
2 | 1 to 25% | 1 to 25% | 1 to 25% | 26 to 50% | 1 to 25% | 1 to 25% | > 10 µM | O=C(c1nc(O)c2scc(-c3ccccn3)c2n1)N1CCCC1 [Compound 19, (4-Hydroxy-7-(pyridin-2-yl)thieno[3,2-d]pyrimidin-2-yl)(pyrrolidin-1-yl)methanone] | 0 (0% inhibition)
3 | 76 to 100% | 76 to 100% | 76 to 100% | 51 to 75% | 76 to 100% | 76 to 100% | 1 to 4.99 µM | COCCn1ccnc1-c1nc(N[C@H]2C[C@@H](OC)C2)c2c(-c3ccccc3)c(-c3ccn(C)n3)sc2n1 [Compound 7, N-((1s,3s)-3-Methoxycyclobutyl)-2-(1-(2-methoxyethyl)-1H-imidazol-2-yl)-6-(1-methyl-1H-pyrazol-3-yl)-5-phenylthieno[2,3-d]pyrimidin-4-amine] | 0 (0% inhibition)
4 | 76 to 100% | 76 to 100% | 76 to 100% | 51 to 75% | 76 to 100% | 76 to 100% |  | CO[C@@H]1CC[C@@H](Nc2nc(-c3nccn3C)nc3sc(-c4ccn(C(C)C)n4)c(C)c23)C1 (racemic) [Compound 33, rac-6-(1-Isopropyl-1H-pyrazol-3-yl)-N-((1R,3R)-3-methoxycyclopentyl)-5-methyl-2-(1-methyl-1H-imidazol-2-yl)thieno[2,3-d]pyrimidin-4-amine] | 0 (0% inhibition)
5 | 0% | 1 to 25% | 26 to 50% | 51 to 75% | 51 to 75% | 26 to 50% |  | COCC1CCN(c2nc(-c3nccn3C)nc3sc(-c4ccn(C(C)C)n4)c(-c4ccccc4)c23)C1 (racemic) [Compound 76, Rac-6-(1-isopropyl-1H-pyrazol-3-yl)-4-(3-(methoxymethyl)pyrrolidin-1-yl)-2-(1-methyl-1H-imidazol-2-yl)-5-phenylthieno[2,3-d]pyrimidine] | 0 (0% inhibition)
6 | 0% | 0% | 0% | 1 to 25% | 0% | 0% | > 10 µM | CO[C@H]1CC[C@@H](Nc2nc(C(=O)NC(C)C)nc3sccc23)C1 (racemic) [Compound 13, Rac-N-isopropyl-4-(((1R,3S)-3-methoxycyclopentyl)amino)thieno[2,3-d]pyrimidine-2-carboxamide] | 0 (0% inhibition)
7 | 51 to 75% | 51 to 75% | 76 to 100% | 51 to 75% | 76 to 100% | 51 to 75% |  | CO[C@H]1CN(c2nc(-c3nccn3C)nc3sc(-c4ccn(C(C)C)n4)c(C)c23)C[C@H]1OC [Compound 39, rac-4-((3S,4R)-3,4-Dimethoxypyrrolidin-1-yl)-6-(1-isopropyl-1H-pyrazol-3-yl)-5-methyl-2-(1-methyl-1H-imidazol-2-yl)thieno[2,3-d]pyrimidine] | <B>
8 | 51 to 75% | 76 to 100% | 76 to 100% | 76 to 100% | 51 to 75% | 76 to 100% |  | COc1ccnc(Nc2nc(-c3nccn3C)nc3sc(-c4ccn(C(C)C)n4)c(C)c23)n1 [Compound 68, 6-(1-Isopropyl-1H-pyrazol-3-yl)-N-(4-methoxypyrimidin-2-yl)-5-methyl-2-(1-methyl-1H-imidazol-2-yl)thieno[2,3-d]pyrimidin-4-amine] | <A>
9 | 26 to 50% | 51 to 75% | 26 to 50% | 26 to 50% | 26 to 50% | 26 to 50% | > 10 µM | CC(C)NC(=O)c1nc(O)c2scc(-c3ccccn3)c2n1 [Compound 20, 4-Hydroxy-N-isopropyl-7-(pyridin-2-yl)thieno[3,2-d]pyrimidine-2-carboxamide] | 0 (0% inhibition)
10 | 26 to 50% | 51 to 75% | 51 to 75% | 26 to 50% | 51 to 75% | 51 to 75% |  | Cc1c(-c2ccn(C(C)C)n2)sc2nc(-c3nccn3C)nc(NC[C@@H]3CCC(=O)N3)c12 [Compound 51] | 0 (0% inhibition)
11 | 51 to 75% |  | 51 to 75% | 26 to 50% | 51 to 75% | 76 to 100% |  | Cc1c(-c2ccn(C(C)C)n2)sc2nc(-c3nccn3C)nc(N3CCC(COC(C)C)C3)c12 (racemic) [Compound 62, rac-4-(3-(Isopropoxymethyl)pyrrolidin-1-yl)-6-(1-isopropyl-1H-pyrazol-3-yl)-5-methyl-2-(1-methyl-1H-imidazol-2-yl)thieno[2,3-d]pyrimidine] | B (26-50% inhibition)
12 | 76 to 100% | 76 to 100% | 76 to 100% | 26 to 50% | 76 to 100% | 51 to 75% |  | Cc1c(-c2ccn(C(C)C)n2)sc2nc(-c3nccn3C)nc(NCCC3CCC(=O)N3)c12 (racemic) [Compound 56, rac-5-(2-((6-(1-Isopropyl-1H-pyrazol-3-yl)-5-methyl-2-(1-methyl-1H-imidazol-2-yl)thieno[2,3-d]pyrimidin-4-yl)amino)ethyl)pyrrolidin-2-one] | 0 (0% inhibition)
13 | 51 to 75% | 26 to 50% | 51 to 75% | 0% | 51 to 75% | 51 to 75% |  | COc1cc(Nc2nc(-c3nccn3C)nc3sc(-c4ccn(C(C)C)n4)c(C)c23)ccn1 [Compound 67, 6-(1-Isopropyl-1H-pyrazol-3-yl)-N-(2-methoxypyridin-4-yl)-5-methyl-2-(1-methyl-1H-imidazol-2-yl)thieno[2,3-d]pyrimidin-4-amine] | <A>
14 | 26 to 50% | 26 to 50% | 26 to 50% | 26 to 50% | 26 to 50% | 26 to 50% | > 10 µM | COCCNC(=O)c1nc(O)c2scc(-c3ccccn3)c2n1 [Compound 21, 4-Hydroxy-N-(2-methoxyethyl)-7-(pyridin-2-yl)thieno[3,2-d]pyrimidine-2-carboxamide] | 0 (0% inhibition)
15 | 51 to 75% | 51 to 75% | 51 to 75% | 26 to 50% | 51 to 75% | 51 to 75% |  | CO[C@H]1C[C@H](CNc2nc(-c3nccn3C)nc3sc(-c4ccn(C(C)C)n4)c(C)c23)C1 [Compound 48, 6-(1-Isopropyl-1H-pyrazol-3-yl)-N-(((1r,3r)-3-methoxycyclobutyl)methyl)-5-methyl-2-(1-methyl-1H-imidazol-2-yl)thieno[2,3-d]pyrimidin-4-amine] | 0 (0% inhibition)
